Values quoted from earlier work in paper PMC8131289, “Direct Comparison of the Prediction of the Unbound Brain-to-Plasma Partitioning Utilizing Machine Learning Approach and Mechanistic Neuropharmacokinetic Model” (The AAPS Journal, 2021).
Like-named read-outs stand apart in the source and are kept apart here.

What was measured:
[1] = target: MDR1 (Homo sapiens, UniProt P08183)
[2] = target: T1, BCRP (Homo sapiens, UniProt Q9UNQ0)
T1 sequence (Q9UNQ0 1-655): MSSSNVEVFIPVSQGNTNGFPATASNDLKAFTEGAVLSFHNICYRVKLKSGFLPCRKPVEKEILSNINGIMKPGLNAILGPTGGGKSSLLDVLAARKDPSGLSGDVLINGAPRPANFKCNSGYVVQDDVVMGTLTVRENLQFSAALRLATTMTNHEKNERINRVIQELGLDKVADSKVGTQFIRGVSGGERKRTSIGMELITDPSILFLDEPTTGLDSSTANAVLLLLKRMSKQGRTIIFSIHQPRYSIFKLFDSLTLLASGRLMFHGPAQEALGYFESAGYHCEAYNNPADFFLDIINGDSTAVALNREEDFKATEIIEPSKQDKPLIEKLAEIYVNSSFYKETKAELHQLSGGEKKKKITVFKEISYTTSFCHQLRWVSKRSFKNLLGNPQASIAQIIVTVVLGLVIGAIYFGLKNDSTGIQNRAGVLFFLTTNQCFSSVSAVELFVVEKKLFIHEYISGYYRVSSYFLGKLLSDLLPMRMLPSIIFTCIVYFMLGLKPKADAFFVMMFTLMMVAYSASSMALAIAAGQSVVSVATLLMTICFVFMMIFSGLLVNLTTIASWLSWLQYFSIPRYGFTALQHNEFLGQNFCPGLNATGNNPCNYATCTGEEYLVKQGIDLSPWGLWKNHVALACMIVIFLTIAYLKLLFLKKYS

[3] = external dataset
[4] = MDCK-MDR1 cells, external dataset, ref (17)
[5] = MDCK-BCRP cells, external dataset, ref (17)

Sequence of MDR1 (P08183 whole entry): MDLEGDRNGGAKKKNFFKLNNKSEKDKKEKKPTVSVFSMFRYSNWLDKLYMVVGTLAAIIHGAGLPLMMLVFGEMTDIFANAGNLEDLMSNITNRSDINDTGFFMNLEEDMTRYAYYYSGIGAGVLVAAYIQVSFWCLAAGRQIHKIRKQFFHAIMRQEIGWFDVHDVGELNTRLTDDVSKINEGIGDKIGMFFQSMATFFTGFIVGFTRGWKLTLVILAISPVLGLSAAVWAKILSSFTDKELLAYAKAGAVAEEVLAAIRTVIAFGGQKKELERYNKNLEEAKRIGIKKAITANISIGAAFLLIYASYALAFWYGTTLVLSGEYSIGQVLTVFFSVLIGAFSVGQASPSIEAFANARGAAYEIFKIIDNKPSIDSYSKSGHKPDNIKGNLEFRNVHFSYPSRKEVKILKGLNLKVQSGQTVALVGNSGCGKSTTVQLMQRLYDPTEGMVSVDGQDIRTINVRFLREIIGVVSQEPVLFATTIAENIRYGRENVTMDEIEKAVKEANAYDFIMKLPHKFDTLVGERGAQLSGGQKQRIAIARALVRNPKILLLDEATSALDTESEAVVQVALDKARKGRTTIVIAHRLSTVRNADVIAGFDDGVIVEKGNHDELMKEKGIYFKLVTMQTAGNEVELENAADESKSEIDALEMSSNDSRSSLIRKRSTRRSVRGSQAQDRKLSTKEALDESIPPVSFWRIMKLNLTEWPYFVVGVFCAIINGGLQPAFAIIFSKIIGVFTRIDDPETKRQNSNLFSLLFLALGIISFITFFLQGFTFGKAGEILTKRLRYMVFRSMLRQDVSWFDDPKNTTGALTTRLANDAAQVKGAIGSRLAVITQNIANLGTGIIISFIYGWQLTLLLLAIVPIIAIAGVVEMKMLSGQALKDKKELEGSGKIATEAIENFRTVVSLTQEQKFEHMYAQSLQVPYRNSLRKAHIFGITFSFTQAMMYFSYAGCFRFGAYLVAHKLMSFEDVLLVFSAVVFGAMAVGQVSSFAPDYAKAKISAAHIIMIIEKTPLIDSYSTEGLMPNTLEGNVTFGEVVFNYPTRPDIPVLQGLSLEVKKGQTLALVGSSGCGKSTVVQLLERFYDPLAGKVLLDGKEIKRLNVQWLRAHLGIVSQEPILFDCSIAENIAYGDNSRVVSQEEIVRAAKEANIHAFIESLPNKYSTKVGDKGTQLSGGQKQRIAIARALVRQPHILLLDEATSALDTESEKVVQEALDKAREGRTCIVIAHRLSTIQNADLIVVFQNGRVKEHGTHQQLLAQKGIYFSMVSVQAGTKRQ

Compound | Efflux ratio MDR1 [1, 4] | Efflux ratio BCRP [2, 5] | Kp,uu,brain ([3]; ref (30)) | also measured
Cc1cc(=O)n(-c2ccccc2)n1C [Antipyrine] |  |  |  | Efflux ratio MDR1 ([1]; MDCK-MDR1): 0.91; Efflux ratio BCRP [2]: 0.96
CC(NC(C)(C)C)C(=O)c1cccc(Cl)c1 (centres unmarked) [Bupropion] | 1.2 | 0.80 |  | 
NC(=O)N1c2ccccc2C=Cc2ccccc21 [Carbamazepine] | 1.26 | 0.88 | 0.389 | 
C#Cc1cccc(Nc2ncnc3cc(OCCOC)c(OCCOC)cc23)c1 [Erlotinib] |  |  |  | Kp,uu,brain ([3]; ref (17)): 0.0614
CNCCC(Oc1ccc(C(F)(F)F)cc1)c1ccccc1 (centres unmarked) [Fluoxetine] |  |  | 2.14 | 
CN(C)C(=O)C(CCN1CCC(O)(c2ccc(Cl)cc2)CC1)(c1ccccc1)c1ccccc1 [Loperamide] |  |  | 0.0244 | 
CN1CCN2c3ncccc3Cc3ccccc3C2C1 (centres unmarked) [Mirtazapine] |  |  | 1.61 | 
COc1ccc(C(CN(C)C)C2(O)CCCCC2)cc1 (centres unmarked) [Venlafaxine] |  |  | 1.07 | 

Further lines, with some results ahead:

Efflux ratio MDR1 [1, 4] | Efflux ratio BCRP [2, 5] | Kp,uu,brain ([3]; ref (30)) | Compound | also measured
4.4 | 20 |  | COc1ccc2c(c1)c(CC(=O)O)c(C)n2C(=O)c1ccc(Cl)cc1 [Indomethacin] | 
1.42 |  |  | CN(Cc1cnc2nc(N)nc(N)c2n1)c1ccc(C(=O)N[C@@H](CCC(=O)O)C(=O)O)cc1 [Methotrexate] | 
5.4 |  |  | CC(C)NCC(O)COc1cccc2[nH]ccc12 (centres unmarked) [Pindolol] | 
0.46 |  |  | CN[C@H]1CC[C@@H](c2ccc(Cl)c(Cl)c2)c2ccccc21 [Sertraline] | 
2.6 | 0.57 | 1.43 | CSc1ccc2c(c1)N(CCC1CCCCN1C)c1ccccc1S2 (centres unmarked) [Thioridazine] | 
